Measurements reported in patent US9617256B2 (priority 2007, dated 2017).
≈ marks a conversion by molar mass, not a printed value. Read-outs that look alike come from different tables or passages of the source.

Legend:
[1] = test system: AECO001 (ATCC25922); assay: MIC broth microdilution, AECO001; assay type: cell-based, E. coli; conditions: for MIC: Escherichia coli; for Ratio of MICs on AECO001 [Cpd (A = —CHCH3NH2)/Cpd (A = —C(CH3)2NH2)]: MIC of paired compound with A = —CHCH3NH2 divided by MIC of compound with A = —C(CH3)2NH2, n=2 data, pairs identical except for the A moiety
In short: (§1)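 Growth inhibition was scored by CLSI broth microdilution using cation-adjusted Mueller-Hinton broth and a final inoculum between 3×10^5 and 7×10^5 CFU/mL, incubated 18-24 hours at 35° C.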

[2] = test system: AECO063 (ATCC25922 bearing an acrAB mutation); assay: microbe, parasite or virus in culture; assay type: cell-based, E. coli; conditions: Escherichia coli, ATCC25922, read-out: MIC AECO063
In short: as §1

[3] = test system: APAE001 (ATCC27853); assay: MIC broth microdilution, APAE001; assay type: cell-based, P. aeruginosa; conditions: Pseudomonas aeruginosa, ATCC27853, read-out: MIC APAE001, APAE001 (ATCC27853)
In short: as §1

[4] = test system: APAE006 (strain of P. aeruginosa in which all efflux pumps are inactivated); assay: microbe, parasite or virus in culture; assay type: cell-based; conditions: Pseudomonas aeruginosa, read-out: MIC APAE006, APAE006, all efflux pumps inactivated
In short: (§2)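 Minimum inhibitory concentrations followed CLSI broth microdilution guidelines: cation-adjusted Mueller-Hinton broth, 2-fold serial drug dilutions, final inoculum 3×10^5–7×10^5 CFU/mL, ambient air at 35° C. for 18-24 hours. Quality-control strains and levofloxacin monitored performance.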

[5] = test system: APAE006 in the presence of 8 micrograms per milliliter of polymyxin B nonapeptide; assay type: cell-based, P. aeruginosa; conditions: APAE006 with 8 micrograms per milliliter polymyxin B nonapeptide
In short: as §2

[6] = test system: AABA1060 (clinical isolate of Acinetobacter baumannii); assay: MIC broth microdilution, AABA1060; assay type: cell-based; conditions: Acinetobacter baumannii, read-out: MIC AABA1060
In short: as §1

[7] = test system: ASAU001 (laboratory strain of S. aureus, ATCC29213); assay: MIC broth microdilution, ASAU001; assay type: cell-based; conditions: Staphylococcus aureus, ATCC29213, read-out: MIC ASAU001
In short: as §1

[8] = ATCC25922, read-out: MIC AECO001
[9] = ATCC25922, read-out: MIC AECO001 HSA AGP

Compound	MIC [1, 8] [mg/L]	MIC [1, 9] [mg/L]	MIC [2] [mg/L]	MIC [3] [mg/L]	MIC [4] [mg/L]	MIC APAE006 + PMBN [5]	MIC [6] [mg/L]	MIC [7] [mg/L]	Ratio of MICs on AECO001 [Cpd (A = —CHCH3NH2)/Cpd (A = —C(CH3)2NH2)] [1]
CC(C)C#C/C=C/c1ccc(C(=O)N[C@H](C(=O)NO)C(C)(C)N)cc1 [Example 114-19]	< 2	2 to 16 (≈ 5.82 to 46.6 µM)	< 2	< 2	< 2	A (MIC's of 2.0 μg/mL or less = A)	< 2	2 to 16 (≈ 5.82 to 46.6 µM)	–
CC(C)(N)[C@H](NC(=O)c1ccc(/C=C/C#CC2CCCC2)cc1)C(=O)NO [Example 114-20]	< 2	2 to 16 (≈ 5.41 to 43.3 µM)	< 2	2 to 16 (≈ 5.41 to 43.3 µM)	< 2	A (MIC's of 2.0 μg/mL or less = A)	< 2	2 to 16 (≈ 5.41 to 43.3 µM)	–
C[C@@H](N)[C@H](NC(=O)c1ccc(C#Cc2ccc(CN3CCC(F)CC3)cc2)cc1)C(=O)NO [Example 115-1, N-((2S,3R)-3-amino-1-(hydroxyamino)-1-oxobutan-2-yl)-4-((4-((4-fluoropiperidin-1-yl)methyl)phenyl)ethynyl)benzamide]	< 2	2 to 16 (≈ 4.42 to 35.4 µM)	< 2	2 to 16 (≈ 4.42 to 35.4 µM)	< 2	A (MIC's of 2.0 μg/mL or less = A)	2 to 16 (≈ 4.42 to 35.4 µM)	> 64	–
C[C@@H](O)[C@H](NC(=O)c1ccc(C#Cc2ccc(CNCC(F)F)cc2)cc1)C(=O)NO [Example 119-4]	< 2	< 2	< 2	< 2	< 2	A (MIC's of 2.0 μg/mL or less = A)	2 to 16 (≈ 4.64 to 37.1 µM)	16 to 64 (≈ 37.1 to 148 µM)	–
CC(C)(O)[C@H](NC(=O)c1ccc(C#Cc2ccc(CNCC(F)F)cc2)cc1)C(=O)NO [Example 119-5]	< 2	< 2	< 2	< 2	< 2	A (MIC's of 2.0 μg/mL or less = A)	< 2	16 to 64 (≈ 35.9 to 144 µM)	–
CC(C)(N)[C@H](NC(=O)c1ccc(C#Cc2ccc(CNC3CC3)cc2)cc1)C(=O)NO [Example 121-1, N—((S)-2-Amino-1-hydroxycarbamoyl-2-methyl-propyl)-4-(4-cyclopropylaminomethyl-phenylethynyl)-benzamide]	< 2	< 2	< 2	< 2	< 2	A (MIC's of 2.0 μg/mL or less = A)	2 to 16 (≈ 4.76 to 38 µM)	16 to 64 (≈ 38 to 152 µM)	4.0
COCCNCc1ccc(C#Cc2ccc(C(=O)N[C@H](C(=O)NO)[C@@H](C)N)cc2)cc1 [Example 122-1, N-((1S,2R)-2-Amino-1-hydroxycarbamoyl-propyl)-4-{4-[(2-methoxy-ethylamino)-methyl]-phenylethynyl}-benzamide]	2 to 16 (≈ 4.71 to 37.7 µM)	2 to 16 (≈ 4.71 to 37.7 µM)	< 2	2 to 16 (≈ 4.71 to 37.7 µM)	< 2	A (MIC's of 2.0 μg/mL or less = A)	16 to 64 (≈ 37.7 to 151 µM)	16 to 64 (≈ 37.7 to 151 µM)	–
CC(C)(C)CNCc1ccc(C#Cc2ccc(C(=O)N[C@H](C(=O)NO)C(C)(C)N)cc2)cc1 [Example 122-2]	< 2	2 to 16 (≈ 4.44 to 35.5 µM)	< 2	< 2	< 2	A (MIC's of 2.0 μg/mL or less = A)	2 to 16 (≈ 4.44 to 35.5 µM)	16 to 64 (≈ 35.5 to 142 µM)	–
CC(C)(N)[C@H](NC(=O)c1ccc(C#Cc2ccc(CNCC(F)F)cc2)cc1)C(=O)NO [Example 122-3]	< 2	< 2	< 2	< 2	< 2	A (MIC's of 2.0 μg/mL or less = A)	< 2	16 to 64 (≈ 36 to 144 µM)	–
CC(C)(N)[C@H](NC(=O)c1ccc(C#Cc2ccc(CN3CCS(=O)(=O)CC3)cc2)cc1)C(=O)NO [Example 122-4]	< 2	2 to 16 (≈ 4.01 to 32.1 µM)	< 2	< 2	< 2	A (MIC's of 2.0 μg/mL or less = A)	< 2	16 to 64 (≈ 32.1 to 128 µM)	–
CC(C)(N)[C@H](NC(=O)c1ccc(C#Cc2ccc(CNCCF)cc2)cc1)C(=O)NO [Example 122-6]	< 2	< 2	< 2	< 2	< 2	A (MIC's of 2.0 μg/mL or less = A)	2 to 16 (≈ 4.69 to 37.5 µM)	16 to 64 (≈ 37.5 to 150 µM)	2.1
CC(C)(O)[C@H](NC(=O)c1ccc(C#Cc2ccc(CN3CCCOCC3)cc2)cc1)C(=O)NO [Example 122-8]	< 2	< 2	< 2	< 2	< 2	A (MIC's of 2.0 μg/mL or less = A)	2 to 16 (≈ 4.3 to 34.4 µM)	16 to 64 (≈ 34.4 to 137 µM)	–
